# Molecular target: Neutravidin (Gallus gallus, UniProt P02701)
# Test: surface capture of BSA-biotin on Neutravidin coated MALDI target, competition by free biotin
# Format: binding
# Conditions: MALDI target coated with PLL-PEG-biotin and Neutravidin; MALDI mass spectrum readout
# Excerpt: The specificity of the surface capture was confirmed with the following experiments. BSA-Biotin was deposited on the MALDI target without Neutravidin or without the Biotin layer. BSA-Biotin was not detected in either case. Furthermore, binding of BSA-biotin to the Neutravidin coated surface is inhibited by the presence of free biotin. The database search results for BSA-biotin are presented in the appendix A.
# MALDI targets are cleaned before use with acetone, acetonitrile, double distilled water and dried under nitrogen. Each position on the MALDI target is coated with 500 nanoliter 1%PLL-PEG-2%Biotin solution dissolved in desalting buffer. The target is then placed in a humid chamber for one hour at room temperature. Unbound PLL-PEG is rinsed with […] washing buffer followed by two washes with […] washing buffer. The target surface is dried under nitrogen. The PLL-PEG coating is then overlaid with 500 nanoliter of 0.5 mg/ml Neutravidin at each position of the array, incubated for one hour at RT in a humid chamber, rinsed with washing buffer, washed twice with […] washing buffer and dried under nitrogen. THE MALDI target is now ready to be used as a highly specific affinity capture surface. […]
# Sequence of Neutravidin (P02701 25-152): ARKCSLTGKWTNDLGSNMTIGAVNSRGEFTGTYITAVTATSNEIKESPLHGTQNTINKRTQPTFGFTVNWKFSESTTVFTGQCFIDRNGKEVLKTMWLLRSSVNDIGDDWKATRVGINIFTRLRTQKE
structure (smiles),measurement,value
O=C(O)CCCC[C@@H]1SC[C@@H]2NC(=O)N[C@@H]21 [biotin],binding of BSA-biotin to the Neutravidin coated surface in the presence of free biotin,inhibited
